This test relates to A2780 cells. Put plainly: In vitro cell proliferation assay (WST-1 assay). The conditions noted are these: Homo sapiens, total incubation time 72 h, WST-1 readout. It counts as cell-based. The method, then:
A2780 cells were seeded in 96-well plates at 3×10^3 cells/well in 100 μL of culture medium, 8 wells were left empty for media only controls.
After 24 h the compound titrations were performed, in a separate dilution plate, by serially diluting the compounds of general formula (I) in culture medium. A 100 μL of each dilution was added to the plated cells, this was done in triplicate, and controls (e.g. DMSO and blanks) were included. The plates were incubated for 24 h at 37° C. in a CO2 incubator. The compound titrations were repeated in a separate dilution plate after 24 h. The media plus compound from the assay plates were then aspirated. A 100 μL of media was then added to all wells, followed by 100 μL of each compound dilution. The plates were incubated for a further 48 h at 37° C. in a CO2 incubator (total incubation time 72 h). The number of viable cells was then assessed using Cell Proliferation Reagent WST-1. 10 μL of WST-1 reagent added to each well and incubated for one to four hours at 37° C. in CO2 incubator. The absorbance was measured (450 nm/690 nm).
The activity of compounds of general formula (I) in reducing the number of viable cells was calculated as:
% activity=[(S^c−B)/(S^o−B)]×100
S^c denotes signal measured in the presence of test compound, S^o denotes signal detected in the absence of compound, and B denotes background signal, measured in blank wells containing medium only. Analyse data using GraphPad Prism.
On the technique in general: Tetrazolium assays rely on reduction of a dye to a coloured formazan, in cell work by metabolically active cells.

Where a name gives a salt, the structure may show the parent alone.

Broadly, the IC50 is the concentration at which inhibition is half-maximal. A high value points to weaker potency in that assay. Compound `CCN(CCCCCCCCNC(=O)NCc1cccnc1)OCc1ccccc1` [Compound 1081, 1-(8-(benzyloxy(ethyl)amino)octyl)-3-(pyridin-3-ylmethyl)urea oxalate] showed a half-maximal inhibitory concentration (IC50) of 0.55 nM.

`CCS(=O)(=O)N(CCCCCCCN/C(=N\C#N)Nc1ccncc1)OCC1CCCCC1` [Compound 1060, N-(7-(2-cyano-3-(pyridin-4-yl)guanidino)heptyl)-N-(cyclohexylmethoxy)ethanesulfonamide] yielded a concentration for half-maximal inhibition (IC50) of 0.049 nM.

For the compound `O=C(/C=C/c1cccnc1)NCCCCCCCCN(CCCN1CCOCC1)C(=O)c1ccccc1` [Compound 1074, (E)-N-(3-morpholinopropyl)-N-(8-(3-(pyridin-3-yl)acrylamido)octyl)benzamide], the IC50 is 0.6 nM.

The compound `O=C(NCCCCCCCN(CCCN1CCOCC1)S(=O)(=O)C1CCCC1)NCc1cccnc1` [Compound 1015, N-(3-morpholinopropyl)-N-(7-(3-(pyridin-3-ylmethyl)ureido)heptyl) cyclopentanesulfonamide] yielded an IC50 of 0.1 nM.

`N#C/N=C(\NCCCCCCN(CCCN1CCOCC1)C1CCCCC1)Nc1ccncc1` [Compound 1003, 2-cyano-1-(6-(cyclohexyl(3-morpholinopropyl)amino)hexyl)-3-(pyridin-4-yl)guanidine] returned an IC50 of 11.2 nM.

With `N#C/N=C(\NCCCCCCCCN(CCCN1CCOCC1)S(=O)(=O)c1ccccc1)Nc1ccncc1` [Compound 1035, N-(8-(2-cyano-3-(pyridin-4-yl)guanidino)octyl)-N-(3-morpholinopropyl)benzenesulfonamide], half-maximal inhibition (IC50) was put at 0.042 nM.

On to `CS(=O)(=O)N(CCCCCCN/C(=N\C#N)Nc1ccncc1)OCC1CCCCC1` [Compound 1112, N-(6-(2-cyano-3-(pyridin-4-yl)guanidino)hexyl)-N-(cyclohexylmethoxy)methanesulfonamide], for which 0.086 nM corresponded to half-maximal inhibition (IC50).

Turning to `N#C/N=C(\NCCCCCCCCN(CCCN1CCOCC1)C(=O)c1ccccc1)Nc1cccnc1` [Compound 1076, N-(8-(2-cyano-3-(pyridin-3-yl)guanidino)octyl)-N-(3-morpholinopropyl)benzamide], it took 0.075 nM to reach half-maximal inhibition (IC50).

`O=C(/C=C/c1cccnc1)NCCCCCCCN(OC1CCCCO1)S(=O)(=O)Cc1ccccc1` (stereo not drawn) [Compound 1058, (E)-N-(7-(1-phenyl-N-(tetrahydro-2H-pyran-2-yloxy)methylsulfonamido)heptyl)-3-(pyridin-3-yl)acrylamide] returned an IC50 of 0.39 nM.

The compound `N#C/N=C(\NCCCCCCCN(CCCN1CCOCC1)S(=O)(=O)C1CCCCC1)Nc1ccncc1` [Compound 1010, N-(7-(2-cyano-3-(pyridin-4-yl)guanidino)heptyl)-N-(3-morpholinopropyl)cyclohexanesulfonamide] gave an IC50 of 0.002 nM.

Regarding `CCN(CCCCCCCCN/C(=N\C#N)Nc1ccncc1)OCCN1CCOCC1` [Compound 1086, 2-Cyano-1-(8-(ethyl(2-morpholinoethoxy)amino)octyl)-3-(pyridin-4-yl)guanidine oxalate], the IC50 was determined as 0.024 nM.

As to `CCS(=O)(=O)N(CCCCCN/C(=N\C#N)Nc1ccncc1)OCC1CCCCC1` [Compound 1144], the half-inhibitory concentration (IC50) came out at 0.037 nM.

Compound `CNC(=S)N(CCCCCCN/C(=N\C#N)Nc1ccncc1)OCC1CCCCC1` [Compound 1116, 1-(6-(2-cyano-3-(pyridin-4-yl)guanidino)hexyl)-1-(cyclohexylmethoxy)-3-methylthiourea] registered an IC50 of 0.056 nM.

Compound `N#C/N=C(\NCCCCCCCN(CCCN1CCOCC1)S(=O)(=O)C1CCCC1)Nc1ccncc1` [Compound 1011, N-(7-(2-cyano-3-(pyridin-4-yl)guanidino)heptyl)-N-(3-morpholinopropyl)cyclopentanesulfonamide] showed an IC50 of 0.003 nM.

In the case of `N#C/N=C(\NCCCCCCCCNOCC1CCCCC1)Nc1ccncc1` [Compound 1107, 2-cyano-1-(8-(cyclohexylmethoxyamino)octyl)-3-(pyridin-4-yl)guanidine], the IC50 is 0.57 nM.

Values taken from patent US20120264755A1, “PYRIDINYL DERIVATIVES AS INHIBITORS OF ENZYME NICOTINAMIDE PHOSPHORIBOSYLTRANSFERASE” (TopoTarget, priority 2009, published 2012).
